Consider four substances from patent US12411143B2, “CD146 and uses thereof as a biomarker and as a therapeutic target in the diagnosis and treatment of fibrosis” (ASSISTANCE PUBLIQUE HÔPITAUX DE MARSEILLE, priority 2018, dated 2025).

Common to all, as to assay type: cell-based, human
In data set [1] the test system is ECFC. Briefly: Soluble CD146 secretion in ECFC (ELISA). The protocol:
A: Secretion of soluble CD146 (CD146s) was determined in ECFC in response to 24 h of treatment with 20 ng/ml TNF, 20 ng/ml VEGF, 5 ng/ml TGFb, 50 ng/ml netrin, 50 ng/ml Wnt5a and 50 ng/ml Wnt3a.
B: The effect of the pan-inhibitor GM6001 was tested on CD146s secretion in ECFC cells by ELISA. Experiments were performed in control conditions and after treatment with 20 ng/ml TNF for 24 h. […] A dose-dependence of GM6001 effect was performed between 1 and 50 μM. Results are the mean values+/−SEM of 5 experiments.
C: The effect of furin convertase inhibitor (IF) was tested at 50 μMon CD146s secretion in control condition and after treatment with TNF 20 ng/ml for 24 h. Results are the mean values+/−SEM of 3 experiments.
D: Effect of TIMP-1, -2 and -3 (1 μg/ml) was tested on CD146s secretion in control condition and after treatment with 20 ng/ml TNF. Results are the mean values+/−SEM of 3 experiments. *: P<0.05, **: P<0.01, ***: P<0.001, experimental vs Control
A: ECFC were transfected with siRNA targeting the short (shCD146) or the long (IgCD146) isoforms of CD146 and with a control siRNA (C). Soluble CD146 (sCD146) secretion was determined. Results are the mean values+/−SEM of 4 different experiments.
B: ECFC were transfected with siRNA targeting MT1-MMP, MMP2, ADAM10 or Tace and with a control siRNA (C). Soluble CD146 (sCD146) secretion was determined. In one condition, cells were treated with GM6001 10 μM. Results are the mean values+/−SEM of 5 different experiments.
A: ECFC were transfected with siRNA targeting the short (shCD146) or the long (IgCD146) isoforms of CD146 and with a control siRNA (C) and soluble CD146 (sCD146) secretion was determined in basal condition and in cells treated for 24 h with TNF 20 ng/ml. Results are the mean values +/−SEM of 5 different experiments.
B: ECFC treated for 24 h with 20 ng/ml TNF were transfected with siRNA targeting Tace, ADAM10, MT1-MMP and with a control siRNA (C) and soluble CD146 (sCD146) secretion was determined. Results are the mean values +/−SEM of 3 different experiments.
Endothelial Colony Forming Cells (ECFC) were cultured in endothelial EGM-2 MV medium as previously described (Delorme B et al., 2005).
SiRNA designed to silence the different isoforms of sCD146 were generated. A control siRNA was also used in each experiment. siRNAs were introduced in endothelial cells using the Silence magmagnetofection kit as described by the manufacturer (OZ Biosciences).
Shed sCD146 was assayed using the commercial ELISA assay (CY-QUANT sCD146, Biocytex, Marseille). Plates were coated with specific mouse monoclonal anti-human CD146 F(ab′)2 fragments. 10 μL of sera was added to each well and incubated for 30 minutes at room temperature. After incubation, the plates were washed five times, followed by incubation with a specific HRP-coupled monoclonal antibody (7A4-HRP, 1 mg/ml, Biocytex, Marseille, France) at a 1:1 000 dilution in a specific diluent for 30 minutes at room temperature and then washed five times. 200 μL of tetramethylbenzidine (TMB) substrate was incubated for approximately 20 minutes at room temperature. The colorimetric reaction was then stopped by the addition of 100 μL of an acid solution. The intensity of the signal was directly related to the concentration of sCD146 initially contained in the sample. For detecting the two spliced isoforms of sCD146 (I5-13-sCD146 and I10-sCD146), the same immunoassay was used (Biocytex). The protocol was modified only for the second antibody (detection antibody) that was replaced by the anti-I5-13-sCD146 or anti-I10-sCD146 antibodies coupled to HRP.

The subject of data set [2] is ECFC. Description: Permeability of ECFC monolayer to dextran-FITC. Particulars: siRNA or plasmid transfection. On the procedure:
D: ECFC were transfected with siRNA targeting ADAM10 or Tace and with a control siRNA (C). The permeability of the ECFC monolayer grown on semi-permeable filters was determined using dextran-FITC. Results are the mean values+/−SEM of 3 experiments.
E: ECFC were transfected with plasmid vectors encoding ADAM10 (p-ADAM10) or Tace (p-Tace) and with a control plasmid vector (C). The permeability of the ECFC monolayer grown on semi-permeable filters was determined using dextran-FITC. Results are the mean values+/−SEM of 3 experiments. *: P<0.05, **: P<0.01, ***: P<0.001, experimental vs Control.
ECFC were seeded at 60,000 cells per well on membrane inserts (porosity 1 μm) of a 24-multiwell double chamber system (Multiwell Insert System, BD Biosciences, Le Pont de Claix, France) after siRNA transfection or not. Confluent endothelial monolayers were then incubated for 24 h in EGM-2 medium in the presence or absence of the different forms of sCD146. The FITC-dextran (sigma) was added at the apical surface of the cells and was allowed to migrate for 1.5 h at 37° C. Basolateral FITC-dextran was then measured using a Cytofluor Series 4000 Fluorescence (PerSeptiveBiosystems, Framingham, MA).

In data set [3] the test system is ECFC. Description: ECFC proliferation assay. The following applies: siRNA or plasmid transfection, in the presence of GM6001 10 μM. The protocol:
A: Effect of siRNA targeting I10-sCD146 and I5-13-sCD146 on proliferation of ECFC. Experiments were performed in the presence of GM6001 10 μM. Results are mean values of 4 different experiments and representative pictures of the cells in one experiment are given.
B: Effect of over-expression of I10-sCD146 (p-I10-sCD146), I5-13-sCD146 (p-I5-13-sCD146) and shed sCD146 (p-shed sCD146) realized by plasmid transfection on proliferation of ECFC. Experiments were performed in the presence of GM6001 10 μM.
C: Effect of recombinant proteins I10-sCD146, I5-13-sCD146 and shed sCD146 50 ng/ml on the proliferation of ECFC. Experiments were performed in the presence of GM6001 10 μM. Results are mean values of 4 different experiments.
Experiments were performed as previously described (Stalin et al., 2013).

“Tace siRNA: siRNA targeting Tace; sens 5′CAGGAUUUAAAGGUUAUGGAA (antisense UUCCAUAAACCUUUAAAUCCUG; listed as RNA, chemistry not given here)”: in data set [1] (24 h TNF 20 ng/ml), the “reduction of sCD146 secretion by siRNA” value is 25%. In addition, the “permeability of ECFC monolayer to dextran” value in data set [2] is listed as “did not modify it”.
For “siRNA targeting I5-13-sCD146: siRNA targeting I5-13-sCD146; sens UGGACAUCUAGACGGCUGCUCGUUU (antisense AAACGAGCAGCCGUCUAGAUGUCCA; chemistry not given here)”, in data set [3], the “proliferation of ECFC” value is reported as “inhibited the proliferation of ECFC”.
For the substance “siRNA targeting I10-sCD146: siRNA targeting I10-sCD146; sens CCCUCCCUCUGGGUAGAGACCAGGU (antisense ACCUGGUCUCUACCCAGAGGGAGGG; chemistry not given here)”, in data set [3], the “proliferation of ECFC” value was “inhibited the proliferation of ECFC”.
For the substance “IgCD146 siRNA: siRNA targeting the long isoform of CD146; sens 5′CCCGUCUCGUAAGACCGAACUUGUA (antisense UACAAGUUCGGUCUUACGAGACGGG; chemistry not given here)”, the “reduction of sCD146 secretion by siRNA” value in data set [1] (24 h TNF 20 ng/ml) is reported as “about 60%”. Also, in data set [1] (control condition), the “effect of siRNA on sCD146 secretion” value is “reduced sCD146 secretion” and the “reduction of sCD146 secretion by siRNA” value is given as “around 75%”. For the same substance, in data set [2], the “permeability of ECFC monolayer to dextran” value is recorded as “significantly increased endothelial permeability”.
